{
  "source": "patent US20040127476A1",
  "about": "“Oral testosterone delivery system with improved sustained release” (priority 2002, published 2004)",
  "origin": "cited, not measured here",
  "key": {"[1]": {"conditions": "oral 200 mg twice daily (two doses)"}, "[2]": {"conditions": "oral 200 mg twice daily, double peak effect"}},
  "data": [
    {"smiles": "C[C@]12CC[C@H]3[C@@H](CCC4=CC(=O)CC[C@@]43C)[C@@H]1CC[C@@H]2O", "note": "[micronized testosterone, testosterone]", "values": [
      {"measurement": "time with total serum testosterone within the normal range", "setting": "[1]", "value": "greater than 12 h"},
      {"measurement": "time at desired level of serum testosterone, for each peak", "setting": "[2]", "value": "about 4 hours"}
    ]}
  ]
}
